Results as given in patent EP0375164B1, “Antiviral compounds” (THE WELLCOME FOUNDATION LIMITED, priority 1988, dated 1990).

Key:
[1] = Determination of oral bioavailability by urinary recovery after oral administration; format: in vivo; conditions: Long Evans Rats, gavage, 50 mg/kg; percent of dose excreted in urine over 48 hour collection as the parent compound 1-(β-D-arabinofuranosyl)-5-prop-1-ynyluracil
Description: Tests in rats were carried out on compounds of the invention to determine their bioavailability by measuring the urinary recovery after oral administration, as a percentage of the dose administered. High levels of the parent compound, 1-(β-D-arabinofuranosyl)-5-prop-1-ynyluracil, in the urine indicated good absorption from the gut.
Long Evans Rats were administered the compound of Example 1 or the parent compound by gavage at a dose of 50 mg/kg. The urine was collected for 24 and 48 hours post-dose, ultrafiltered, and analysed by reverse-phase high-pressure liquid chromatography. The oral bioavailability of the Example 1 compound and the parent compound was expressed as the percent of the dose excreted in the urine over the 48 hour period of collection, as 1-(β-D-arabinofuranosyl)-5-prop-1-ynyluracil, i.e. the parent compound.

[2] = system: Vero cells; assay: Cell toxicity in a cell growth inhibition assay (MTT uptake); format: cell-based; conditions: concentration for 50% inhibition of cell viability at 96 hours
Description: Cell toxicity is assessed in a cell growth inhibition assay. Subconfluent cultures of Vero cells grown on 96-well microtiter dishes are exposed to different dilutions of drug, and cell viability determined daily on replicate cultures using uptake of a tetrazolium dye (MTT). The concentration required for a 50% inhibition of cell vaibility at 96 hours is termed CCID₅₀.

| Molecule | Urinary Recovery (% of dose) [1] | CCID₅₀(µM) at 96 hr [2] [µM] |
| --- | --- | --- |
| CC#Cc1cn([C@@H]2O[C@H](CO)[C@@H](O)[C@@H]2O)c(=O)[nH]c1=O [Parent Compound, 1-(β-D-arabinofuranosyl)-5-prop-1-ynyluracil, reference compound] | 9.70 % of dose | – |
| 5-Prop-1-ynyl-1-(5-0-trimethylacetyl-β-D-arabinofuranosyl)uracil [Example 1] | 64.89 % of dose | 477 |
